Data published in patent publication US20230158036A1, “MEDICAMENT FOR THE TREATMENT OF PAIN” (Shionogi & Co., Ltd., priority 2020, published 2023).

Legend:
[1] = test system: knee osteoarthritis patients; conditions: 300 mg twice daily oral, after 4 weeks; NPRS before administration 6.8; cited from earlier work
[2] = test system: patients of interstitial cystitis/bladder pain syndrome; conditions: twice daily oral, gradually increased from 50 mg to 300 mg, after 4 weeks; NPRS before administration 6.2; cited from earlier work
mouse bladder pain model = assay: Drug efficacy in cystitis pain model (cyclophosphamide, automatic von Frey; Test Example 9); format: in vivo; conditions: 3 mg/kg oral, 1 hour after administration
Procedure: (Test Example 9) Assessment of Drug Efficacy in Cystitis Pain Model
Preparation of Mouse Bladder Pain Model
Cyclophosphamide was dissolved in physiological saline or the like, and the solution was intraperitoneally administered to mice. Cyclophosphamide was administered at 150 mg/kg once daily consecutively for four days. As a control, mice to which saline was administered were also prepared.
The analgesic effect of the compound represented by Formula (I) was evaluated the day after the final administration of cyclophosphamide. In this test, mechanical stimulation by an automatic von Frey device was applied to the periphery of the lower abdomen while holding the mouse, and with respect to the resulting escape behavior defined as pain-like behavior, the pain threshold was determined. On the day of the test, the pain threshold before the administration (pre-administration pain threshold) of the compound represented by Formula (I) was measured, and then after the administration of the test substance, the pain threshold was measured. […] Pain thresholds were measured at 1 hour after the administration of the test substance, and these were used as post-administration pain thresholds. A percent reversal value for each rat was calculated using the following formula. […]

[3] = test system: mouse bone cancer pain model; assay: Drug efficacy in mouse bone cancer pain model (NCTC2472 cells in femur, von Frey; Test Example 10); format: in vivo; conditions: 10 mg/kg oral, two weeks after operation
Excerpt: (Test Example 10) Assessment of Drug Efficacy in Mouse Bone Cancer Pain Model
Preparation of Mouse Bone Cancer Pain Model
The skin was incised under isoflurane anesthesia, the muscles were torn to expose the left femur, a hole was made in the bone marrow cavity using a 26 G needle, and tumor cells (NCTC2472 cells derived from C3H/HeN mice) were transplanted using a 30 G needle. The hole made in the femoral bone marrow cavity was closed with dental cement, and then the skin was sutured. Mice in sham-operated groups were prepared by administering HBSS instead of tumor cells.
Two weeks after the operation, the effect on tactile allodynia was assessed using von Frey filaments. Two weeks after the operation, for habituation, the mice were placed into a plastic cage on a wire mesh bottom. […] The pain threshold was evaluated for the operated hind limb and defined as a pre-administration pain threshold, and the compound represented by the formula (I) was administered to the animal at 10 mg/kg. […] Pain thresholds were measured for the operated hind limbs after the administration of the test substance, and these were used as post-administration pain thresholds. A percent reversal value for each rat was calculated using the following formula. […]

[4] = test system: acetic acid-induced urination disorder model; assay: Drug efficacy in acetic acid-induced urination disorder model (Test Example 11); format: in vivo; conditions: rat, 3 mg/kg oral
Procedure: (Test Example 11) Assessment of Drug Efficacy in Acetic Acid-Induced Urination Disorder Model
Preparation of acetic acid-induced urination disorder model
A catheter was placed in a rat bladder under isoflurane anesthesia. After 2 days from the surgery for placing the catheter, 0.3% acetic acid was administered at 4 mL/hr over 30 minutes to induce cystitis. In this model, the amount of urine per urinating action and the voiding interval decreased.
On the day after acetic acid was administered, the amount of urine per urinating action and the voiding interval before drug administration were evaluated. The compound represented by Formula (I) was homogenized with mortar and pestle and suspended in 0.5% Methyl Cellulose to prepare a suspension, and it was orally administered at 0.1 mg/kg, 0.75 mg/kg, or 3 mg/kg to the rats using a syringe attached with a sonde. The amount of urine per urinating action and the voiding interval during a period from 30 minutes to 150 minutes after administration were measured. The value before administration for each individual was assumed to be 100%, and the change rate after administration was calculated.
Rate of change in amount of voided urine per urinating action=(amount of urine per urinating action after drug treatment of cystitis rat[…]amount of voided urine per urinating action before drug treatment of cystitis rat)×100
Rate of change in voiding interval=(voiding interval after drug treatment of cystitis rat[…]voiding interval before drug treatment of cystitis rat)×100

[5] = test system: rat knee osteoarthritis model; assay: Drug efficacy in knee osteoarthritis pain model (MIA, hind limb load distribution; Test Example 7); format: in vivo; conditions: 10 mg/kg oral, 3 hours after administration
Procedure: (Test Example 7) Assessment of Drug Efficacy in Knee Osteoarthritis Pain Model
Preparation of Rat Knee Osteoarthritis Model
Under isoflurane anesthesia, a knee joint on one side was shaved, and a monoiode sodium acetate (MIA) solution (saline solution, up to 5 mg/50 μL/rat) was intraarticularly administered.
Two weeks after the MIA administration, the analgesic effect of the compound represented by Formula (I) was evaluated. This test was based on a system for measuring a load distribution applied to hind limbs of a rat, and a ratio of load differences between left and right hind limbs was used as a pain threshold. On the day of the test, the pain threshold before the administration of the compound represented by Formula (I) was measured, and then after the administration of the test substance, the pain threshold was measured. […] Pain thresholds were measured for the hind limbs at 3 hours after the administration of the test substance, and these were used as post-administration pain thresholds. The load difference was measured up to three times, and the average value thereof was used as the pain threshold.
A percent reversal value for each rat was calculated using the following formula. […]

[6] = test system: rat diabetic neuropathic pain model; assay: Drug efficacy in diabetic neuropathic pain model (STZ, Randall-Selitto; Test Example 6); format: in vivo; conditions: 10 mg/kg oral, 3 hours after administration
Procedure: (Test Example 6) Assessment of Drug Efficacy in Diabetic Neuropathic Pain Model
Preparation of Rat Diabetic Neuropathic Pain Model
To overnight fasted rats, […] of streptozotocin (STZ) was intravenously administered to prepare a diabetes model. As a control, rats to which saline was administered were also prepared.
(§1) Two weeks after the administration of STZ, the analgesic effect of the compound represented by Formula (I) was evaluated by the Randall-Selitto method. […] On the day of the test, the pain threshold before the administration of the compound represented by Formula (I) was measured, and then after the administration of the test substance, the pain threshold was measured. The compound represented by Formula (I) was homogenized with mortar and pestle and suspended in 0.5% Methyl Cellulose to prepare a suspension, and it was orally administered at 10 mg/kg to the animals using a syringe attached with a sonde. Pain thresholds were measured for the hind limbs at 3 hours after the administration of the test substance, and these were used as post-administration pain thresholds. A percent reversal value for each rat was calculated using the following formula. The analgesic effects of the compound were compared.
% Reversal value=(post-administration pain threshold−pre-administration pain threshold)/(pain threshold of saline-administered rat−pre-administration pain threshold)×100

rat P2X3 receptor = biological target: T1, rat P2X3 receptor (Rattus norvegicus, UniProt P49654); assay: Evaluation of rat P2X3 receptor inhibitory activity in the presence of rat serum albumin (Test Example 4); format: cell-based
T1 construct: expressed in transfected cells; host or cells: C6BU-1 cells (stably expressing line)
T1 sequence (P49654 1-397): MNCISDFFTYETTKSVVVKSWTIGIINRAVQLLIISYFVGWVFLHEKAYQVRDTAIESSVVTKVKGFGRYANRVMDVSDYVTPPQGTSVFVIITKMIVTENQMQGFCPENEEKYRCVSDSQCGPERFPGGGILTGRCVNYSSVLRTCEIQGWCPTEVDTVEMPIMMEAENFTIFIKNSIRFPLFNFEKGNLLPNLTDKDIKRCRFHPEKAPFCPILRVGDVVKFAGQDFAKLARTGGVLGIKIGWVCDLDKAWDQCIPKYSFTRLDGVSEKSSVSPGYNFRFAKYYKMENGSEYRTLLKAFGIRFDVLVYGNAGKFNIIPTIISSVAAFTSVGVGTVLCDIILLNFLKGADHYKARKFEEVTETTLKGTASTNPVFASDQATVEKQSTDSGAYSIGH
Excerpt: (Test Example 4) Evaluation of Rat P2X3 Receptor Inhibitory Activity in the Presence of Rat Serum Albumin (RSA)

[7] = test system: partial sciatic nerve ligation model in rats; assay: Drug efficacy in Seltzer model (partial sciatic nerve ligation, von Frey tactile allodynia; Test Example 5); format: in vivo; conditions: rat, 10 mg/kg oral, 3 hours after administration, two weeks after operation
Excerpt: (Test Example 5) Assessment of Drug Efficacy in Seltzer Model
Partial Sciatic Nerve Ligation Model in Rats
Each rat was anesthetized with isoflurane and the hair of the left thigh was shaved. An incision was made in the skin just below the hip bone. The muscle was bluntly dissected to expose the sciatic nerve. ⅓ to ½ of the sciatic nerve was strongly ligated with a thread, and the muscle and the skin were sutured. This is referred to as a nerve ligated side. The right thigh underwent an identical procedure with the left hind limb except for the ligation of the sciatic nerve. This is referred to as a sham operated side.
Two weeks after the operation, the effect on tactile allodynia was assessed using von Frey filaments. Two weeks after the operation, for habituation, the rats were placed into a plastic cage on a wire mesh bottom. […] Pain thresholds were measured for the left and right hind limbs and these were used as pre-treatment pain thresholds. […] Pain thresholds were measured for the right and left hind limbs at 3 hours after the drug administration, and these were used as post-treatment pain thresholds. A percent reversal value for each rat was calculated using the following formula. […]

[8] = test system: rat inflammatory pain model; assay: Drug efficacy in inflammatory pain model (FCA, Randall-Selitto; Test Example 8); format: in vivo; conditions: 10 mg/kg oral, 1 hour after administration
Procedure: (Test Example 8) Assessment of Drug Efficacy in Inflammatory Pain Model
Preparation of Rat Inflammatory Pain Model
Under isoflurane anesthesia, FCA (12.5-100 μg) was subcutaneously injected into the hind limb of a rat to prepare an inflammatory pain model.
as §1, with “FCA,” for “STZ,”, “1 hour” for “3 hours”
% Reversal value=(post-administration pain threshold−pre-administration pain threshold)/(pain threshold of hind limb on FCA-non-administered side−pre-administration pain threshold)×100

[9] = 30 to 150 minutes after administration, value before administration = 100%

IC50 (rat P2X3 receptor)	Structure (SMILES)	Numeric pain rating scale (NPRS) after administration [1]	Numeric pain rating scale (NPRS) after administration [2]	Percent reversal value (lower abdomen pain threshold, automatic von Frey) (mouse bladder pain model)	Percent reversal value (pain threshold, von Frey) [3]	Rate of change in amount of voided urine per urinating action [4, 9]	Rate of change in voiding interval [4, 9]	Effect on voiding interval and amount of voided urine (FIGS. 1 and 2), in words ([4]; p<0.05 vs vehicle (Dunnett))	Percent reversal value (load difference between left and right hind limbs) [5]	Percent reversal value (pain threshold, Randall-Selitto) [6]	Percent reversal value (pain threshold, von Frey) [7]	Percent reversal value (pain threshold, Randall-Selitto) [8]
	COc1cc(C(C)C)c(Oc2cnc(N)nc2N)cc1S(N)(=O)=O [Gefapixant]	4.9	3.3									
0.01 µM	C[C@@H](Cn1c(=O)[nH]/c(=N\c2ccc(Oc3ccccn3)cc2)n(Cc2ccc(Cl)cc2)c1=O)C(=O)O [compound represented by Formula (I), (2S)-3-(3-[(4-chlorophenyl)methyl]-2,6-dioxo-4-([4-(pyridin-2-yloxy)phenyl]amino)-3,6-dihydro-1,3,5-triazin-1(2H)-yl)-2-methyl-propanoic acid]			46%	55%	208.4%	219.0%	significant improving effect	51%	55%	65%	58%
